Results on 3 compounds are retold here after ChEMBL document CHEMBL1275465, “Plasmid-mediated QnrS2 determinant from a clinical Aeromonas veronii isolate” (2008).

Assay type in all cases: functional
Assay [1] deals with Aeromonas veronii. The assay is described as follows: Antimicrobial activity against QnrS2-positive Aeromonas veronii A272 harboring GyrA Ile83 and ParC Ile80 mutant gene by Etest.
Assay [2] concerns Aeromonas veronii. In words: Antimicrobial activity against QnrS2-negative Aeromonas veronii CECT 4258 harboring GyrA Ser83 and ParC Ser80 mutant gene by Etest.
The test system of assay [3] is Escherichia coli. The assay is described as follows: Antimicrobial activity against Escherichia coli J53 by Etest.
Assay [4] deals with Aeromonas veronii. The assay is described as follows: Antimicrobial activity against QnrS2-negative Aeromonas veronii CECT 4260 harboring GyrA Ser83 and ParC Ser80 mutant gene by Etest.
Assay [5] concerns Escherichia coli. The assay is described as follows: Antimicrobial activity against Escherichia coli J53 harboring QnrS2 and GyrA Ile83 and ParC Ile80 mutant gene by Etest.

Values after ≈ are worked out from the molar mass of the structure shown.

In the case of `O=C(O)c1cn(C2CC2)c2cc(N3CCNCC3)c(F)cc2c1=O` [CIPROFLOXACIN], the MIC is 8 µg/mL (≈ 24.1 µM) against Aeromonas veronii [1], below 0.02 µg/mL in the assay on Aeromonas veronii [2], 0.023 µg/mL (≈ 0.0694 µM) in the assay with Escherichia coli [3] and below 0.02 µg/mL against Aeromonas veronii [4].
Regarding `CCn1cc(C(=O)O)c(=O)c2ccc(C)nc21` [NALIDIXIC ACID], the MIC is above 256 µg/mL in the assay with Aeromonas veronii [1]; below 0.25 µg/mL in the assay on Aeromonas veronii [2]; 4 µg/mL (≈ 17.2 µM) against Escherichia coli [3]; below 0.25 µg/mL with Aeromonas veronii [4]; above 256 µg/mL with Escherichia coli [5].
For `CCn1cc(C(=O)O)c(=O)c2cc(F)c(N3CCNCC3)cc21` [NORFLOXACIN], the MIC is 12 µg/mL (≈ 37.6 µM) against Aeromonas veronii [1]; below 0.02 µg/mL against Aeromonas veronii [2]; 0.19 µg/mL (≈ 0.595 µM) in the assay on Escherichia coli [3]; below 0.02 µg/mL in the assay with Aeromonas veronii [4]; 2 µg/mL (≈ 6.26 µM) in the assay with Escherichia coli [5].
